Among the data in patent US8906852B2 (MethylGene Inc., priority 2010, dated 2014) are IC50 values, retold here.

T1 sequence (P35968 806-1356): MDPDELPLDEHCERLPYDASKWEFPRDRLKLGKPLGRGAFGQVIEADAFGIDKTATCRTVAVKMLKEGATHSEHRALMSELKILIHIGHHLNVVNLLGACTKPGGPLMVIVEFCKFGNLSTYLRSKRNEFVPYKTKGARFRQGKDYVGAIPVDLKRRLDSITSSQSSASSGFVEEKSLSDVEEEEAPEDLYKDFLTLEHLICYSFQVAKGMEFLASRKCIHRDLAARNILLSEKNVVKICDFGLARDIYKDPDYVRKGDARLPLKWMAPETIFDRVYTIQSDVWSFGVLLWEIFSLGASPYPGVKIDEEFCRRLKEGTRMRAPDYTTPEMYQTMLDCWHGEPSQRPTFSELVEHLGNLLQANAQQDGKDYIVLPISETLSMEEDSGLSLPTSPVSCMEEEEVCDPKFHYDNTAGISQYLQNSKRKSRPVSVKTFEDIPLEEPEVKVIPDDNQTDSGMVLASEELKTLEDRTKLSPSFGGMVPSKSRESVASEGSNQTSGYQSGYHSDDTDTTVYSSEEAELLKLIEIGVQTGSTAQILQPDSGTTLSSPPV

This experiment concerns the target T1, VEGFR/KDR (Homo sapiens, UniProt P35968).
T1 construct: made in house; host or cells: Sf9 cells (Spodoptera frugiperda), baculovirus
The experiment is described as follows: VEGFR/KDR kinase inhibition, DELFIA assay. In kind it is biochemical. The conditions noted are these: ATP 0.6 uM (2x Km), enzyme 5 nM. How it is done: Inhibition of VEGFR/KDR is measured in a DELFIA™ assay (Perkin Elmer). The substrate poly(Glu4, Tyr) is immobilized onto black high-binding polystyrene 96-well plates. The coated plates are washed and stored at 4° C. During the assay, the enzyme is pre-incubated with inhibitor and Mg-ATP on ice in polypropylene 96-well plates for 4 minutes, and then transferred to the coated plates. The subsequent kinase reaction takes place at 30° C. for 10-30 minutes. ATP concentrations in the assay are 0.6 uM for VEGFR/KDR (2× the Km). Enzyme concentration is 5 nM. After incubation, the kinase reactions are quenched with EDTA and the plates are washed. Phosphorylated product is detected by incubation with Europium-labeled anti-phosphotyrosine MoAb. After washing the plates, bound MoAb is detected by time-resolved fluorescence in a Gemini SpectraMax reader (Molecular Devices). Compounds are evaluated over a range of concentrations, and IC50 values (concentration of compounds giving 50% inhibition of enzymatic activity) are determined.
`COCCNCCc1ccc(-c2cc3nccc(Oc4ccc(NC(=S)NC(=O)Cc5ccc(F)cc5)cc4F)c3s2)nc1` [Compound 187, N-(3-fluoro-4-(2-(5-(2-(2-methoxyethylamino)ethyl)pyridin-2-yl)thieno[3,2-b]pyridin-7-yloxy)phenylcarbamothioyl)-2-(4-fluorophenyl)acetamide] yielded an IC50 of under 0.05 µM.

`O=C(Nc1ccc(Oc2ccnc3cc(-c4cn(CC(=O)N5CCN(C(=O)CO)CC5)nn4)sc23)c(F)c1)NC1CC1` [Compound 391] displayed an IC50 of under 0.05 µM.

The compound `O=C(Nc1ccc(Oc2ccnc3cc(C4=CCN(CCCN5CCOCC5)CC4)sc23)c(F)c1)NC1CC1` [Compound 276, 1-cyclopropyl-3-(3-fluoro-4-(2-(1-(3-morpholinopropyl)-1,2,3,6-tetrahydropyridin-4-yl)thieno[3,2-b]pyridin-7-yloxy)phenyl)urea] returned an IC50 of 0.05 to 0.1 µM.

In the case of `COCCN(Cc1ccc(-c2cc3nccc(Oc4ccc(NC(=S)NC5CC5)cc4F)c3s2)nc1)C(C)=O` [Compound 504, N-((6-(7-(4-(3-cyclopropylthioureido)-2-fluorophenoxy)thieno[3,2-b]pyridin-2-yl)pyridin-3-yl)methyl)-N-(2-methoxyethyl)acetamide], the IC50 is under 0.05 µM.

With `O=C(Nc1ccc(Oc2ccnc3cc(C(=O)N4CCCC(C(=O)O)C4)sc23)c(F)c1)NC1CC1` (stereo not shown) [Compound 466, 1-(7-(4-(3-cyclopropylureido)-2-fluorophenoxy)thieno[3,2-b]pyridine-2-carbonyl)piperidine-3-carboxylic acid], the IC50 is under 0.05 µM.

Consider `COCCN(CCc1ccc(-c2cc3nccc(Oc4ccc(NC(=O)NC5CC5)cc4F)c3s2)nc1)C(=O)CO` [Compound 46, N-(2-(6-(7-(4-(3-cyclopropylureido)-2-fluorophenoxy)thieno[3,2-b]pyridin-2-yl)pyridin-3-yl)ethyl)-2-hydroxy-N-(2-methoxyethyl)-acetamide], for which the IC50 is under 0.05 µM.

`O=C(Nc1ccc(Oc2ccnc3cc(-c4ccc(CN5CCN(CCn6ccnc6)CC5)cn4)sc23)c(F)c1)NC1CC1` [Compound 54-G, 1-(4-(2-(5-((4-(2-(1H-imidazol-1-yl)ethyl)piperazin-l-yl)methyl)pyridin-2-yl)thieno[3,2-b]pyridin-7-yloxy)-3-fIuorophenyl)-3-cyclopropylurea] showed an IC50 of under 0.05 µM.

For `O=C(Nc1ccc(Oc2ccnc3cc(-c4ccc(CN5C[C@@H]6C[C@H]5CN6)cn4)sc23)c(F)c1)NC1CC1` [Compound 73], the IC50 was under 0.05 µM.

For `Cn1ccc(NCc2ccc(-c3cc4nccc(Oc5ccc(NC(=O)NC6CC6)cc5F)c4s3)nc2)n1` [Compound 334, 1-Cyclopropyl-3-(3-fluoro-4-(2-(5-((1-methyl-1H-pyrazol-3-ylamino)methyl)pyridin-2-yl)thieno[3,2-b]pyridin-7-yloxy)phenyl)urea], the IC50 was under 0.05 µM.

On to `O=C(Nc1ccc(Oc2ccnc3cc(-c4ccc(C(=O)N5CCCC5)cc4)sc23)c(F)c1)Nc1ccc(F)cc1F` [Compound 127, 1-(2,4-difluorophenyl)-3-(3-fluoro-4-(2-(4-(pyrrolidine-1-carbonyl)phenyl)thieno[3,2-b]pyridin-7-yloxy)phenyl)urea], for which the IC50 is under 0.05 µM.

As for `CCNC(=O)N(CCOC)Cc1cnc(-c2cc3nccc(Oc4ccc(NC(=O)NC(C)C)cc4F)c3s2)n1C` [Compound 161-A, 1-((2-(7-(4-isopropylaminocarbonylamino-2-fluorophenoxy)thieno[3,2-b]pyridin-2-yl)-1-methyl-1H-imidazol-5-yl)methyl)-3-ethyl-1-(2-methoxyethyl)urea], the IC50 is under 0.05 µM.

`COCCNCCn1cnc(-c2cc3nccc(Oc4ccc(NC(=O)NC5CC5)cc4F)c3s2)c1` [compound 253] yielded an IC50 of under 0.05 µM.

`O=C(O)CC(N1CCN(Cc2ccc(-c3cc4nccc(Oc5ccc(NC(=O)NC6CC6)cc5F)c4s3)nc2)CC1)C(F)(F)F` (stereo not shown) [Compound 511, 3-(4-((6-(7-(4-(3-cyclopropylureido)-2-fluorophenoxy)thieno[3,2-b]pyridin-2-yl)pyridin-yl)methyl)piperazin-1-yl)-4,4,4-trifluorobutanoic acid] returned an IC50 of under 0.05 µM.

With `CN(C)CCCn1cc(-c2cc3nccc(Oc4ccc(NC(=O)NC5CC5)cc4F)c3s2)nn1` [Compound 384], the IC50 was under 0.05 µM.

`O=C(Nc1ccc(Oc2ccnc3cc(-c4ccc(C(=O)N5CCNCC5)cn4)sc23)c(F)c1)NC1CC1` [Compound 550] came in with an IC50 of under 0.05 µM.

On to `NCC(=O)N1CCN(Cc2ccc(-c3cc4nccc(Oc5ccc(NC(=O)NC6CC6)cc5F)c4s3)nc2)CC1` [Compound 77, 1-(4-(2-(5-((4-(2-aminoacetyl)piperazin-1-yl)methyl)pyridin-2-yl)thieno[3,2-b]-pyridin-7-yloxy)-3-fluorophenyl)-3-cyclopropylurea], for which the IC50 is under 0.05 µM.

Take `NC1CCN(Cc2ccc(-c3cc4nccc(Oc5ccc(NC(=O)NC6CC6)cc5F)c4s3)nc2)CC1` [Compound 343, 1-(4-(2-(5-((4-Aminopiperidin-1-yl)methyl)pyridin-2-yl)thieno[3,2-b]pyridin-7-yloxy)-3-fluorophenyl)-3-cyclopropylurea]: the IC50 is under 0.05 µM.

`CC(C)(C)OC(=O)NCC(=O)N1CCN(C(=O)Cn2cc(-c3cc4nccc(Oc5ccc(NC(=O)NC6CC6)cc5F)c4s3)nn2)CC1` [Compound 392] returned an IC50 of under 0.05 µM.

Turning to `CCN(CC)CCNC(=O)c1ccc(NCc2ccc(-c3cc4nccc(Oc5ccc(NC(=O)NC6CC6)cc5F)c4s3)nc2)cc1` [Compound 340, 4-((6-(7-(4-(3-cyclopropylureido)-2-fluorophenoxy)thieno[3,2-b]pyridin-2-yl)pyridin-3-yl)methylamino)-N-(2-(diethylamino)ethyl)benzamide], the IC50 is under 0.05 µM.

The compound `CN(C)[C@H]1CCN(C(=O)c2cc3nccc(Oc4ccc(NC(=O)NC5CC5)cc4F)c3s2)C1` [Compound 441] had an IC50 of under 0.05 µM.

Turning to `CCNC(=O)N(CCOC)Cc1ccc(-c2cc3nccc(Oc4ccc(NC(=O)NC5CC5)nc4)c3s2)nc1` [Compound 37, N-[3((6-(7-(6-(3-cyclopropylureido)-pyridin-3-yloxy)thieno[3,2-b]-pyridin-2-yl)pyridin-3-yl)methyl)]-N-(1-ethyl)-N-[3-(2-methoxyethyl)]urea], the IC50 lay within 0.1 to 0.25 µM.

`O=C1CN(Cc2ccc(-c3cc4nccc(Oc5ccc(NC(=O)NC6CC6)cc5F)c4s3)nc2)CCN1` [Compound 67, l-cyclopropyl-3-(3-fluoro-4-(2-(5-((3-oxopiperazin-1-yl)methyl)pyridin-2-yl)thieno[3,2-b]-pyridin-7-yloxy)phenyl)urea] showed a half-maximal inhibitory concentration (IC50) of under 0.05 µM.

Consider `CCNC(=O)N(C)C1CCN(Cc2ccc(-c3cc4nccc(Oc5ccc(NC(=O)NC6CC6)cc5F)c4s3)nc2)CC1` [Compound 407], for which the IC50 was under 0.05 µM.

In turn, `CN1CCCN(Cc2ccc(-c3cc4nccc(Oc5ccc(NC(=O)NC6CC6)cc5F)c4s3)nc2)CC1` [Compound 54-B, 1-cyclopropyl-3-(3-fluoro-4-(2-(5-((4-methyl-1,4-diazepan-1-yl)methyl)pyridin-2-yl)thieno[3,2-b]pyridin-7-yloxy)phenyl)urea] gave an IC50 of under 0.05 µM.

Turning to `CN(C)C/C=C/C(=O)N1CCN(Cc2ccc(-c3cc4nccc(Oc5ccc(NC(=O)NC6CC6)cc5F)c4s3)nc2)CC1` [Compound 547, (E)-1-cyclopropyl-3-(4-(2-(5-((4-(4-(dimethylamino)but-2-enoyl)piperazin-1-yl)methyl)pyridin-2-yl)thieno[3,2-b]pyridin-7-yloxy)-3-fluorophenyl)urea], the IC50 was under 0.05 µM.

For orientation: IC50 means the concentration that inhibits the measured activity by half. Lower therefore signals greater potency in that assay.
